From ChEMBL document CHEMBL4689842, “EUbOPEN Chemogenomics Library wave 1” (2021) come the findings set out here.

Assay type in all cases: toxicity, cell-based
The subject of one data set is HEK-293T. Briefly: Incucyte cell viability with HEK293T. The note with it: human, 10 µM, compound concentration 10 uM.
A further data set deals with Fibroblast. Briefly: Incucyte cell viability with human fibroblast. The conditions noted are these: 10 µM, compound concentration 10 uM.
A further data set relates to U2OS. Briefly: Incucyte cell viability with U2OS. The conditions noted are these: human, 10 µM, compound concentration 10 uM.
Where [1] appears, read: 0 h, replicate number 1, timepoint 0 hours.
[2] abbreviates: 24 h, replicate number 2, timepoint 24 hours.
Where [3] appears, read: 0 h, replicate number 2, timepoint 0 hours.
[4] abbreviates: 12 h, replicate number 1, timepoint 12 hours.
Where [5] appears, read: 18 h, replicate number 1, timepoint 18 hours.
The mark [6] stands for this setting: 24 h, replicate number 1, timepoint 24 hours.
[7] abbreviates: 6 h, replicate number 1, timepoint 6 hours.
Where [8] appears, read: 6 h, replicate number 2, timepoint 6 hours.
Where [9] appears, read: 12 h, replicate number 2, timepoint 12 hours.
[10] abbreviates: 18 h, replicate number 2, timepoint 18 hours.
Note: filed as whole numbers so only -1 and 0 and 1 occur.

For the compound `Cc1ccc(-c2ccc3c(ccc4sc5c(c43)NC[C@@H](C)NC5=O)n2)cn1`, the “Growth Rate” value was determined as 1 in the data set on HEK-293T (setting [1]); 1 in the data set with HEK-293T (setting [2]); 0 in the data set on Fibroblast (setting [1]); 0 in the data set with U2OS (setting [3]); 1 in the data set on U2OS (setting [4]); 1 with U2OS (setting [5]). Besides, the “Growth Rate” value with U2OS (setting [6]) was 1.

For the compound `Cc1nc(-c2ccc(C(F)(F)F)cc2)sc1COc1ccc([C@H](CC(=O)O)c2ccon2)cc1`, the “Growth Rate” value with HEK-293T (setting [3]) turned out to be 0; in the data set with HEK-293T (setting [7]), 0; in the data set with HEK-293T (setting [8]) it was 1; in the data set on HEK-293T (setting [4]), 0; with HEK-293T (setting [5]), 0; in the data set on HEK-293T (setting [6]), 0. In addition, the “Growth Rate” value was determined as 0 in the data set with Fibroblast (setting [1]); 0 in the data set on Fibroblast (setting [7]); 1 with Fibroblast (setting [4]); 0 with Fibroblast (setting [9]); 1 in the data set with Fibroblast (setting [5]); 0 with Fibroblast (setting [10]). The “Growth Rate” value in the data set on Fibroblast (setting [6]) is reported as 0; in the data set on U2OS (setting [3]) it was 0; with U2OS (setting [8]), 0; with U2OS (setting [4]), 0; in the data set on U2OS (setting [9]), 1; with U2OS (setting [5]), 0. Further, the “Growth Rate” value turned out to be 1 in the data set with U2OS (setting [10]), 0 with U2OS (setting [6]) and 1 in the data set on U2OS (setting [2]).

Take `COc1cc(-c2cn(C)c(=O)c3cnccc23)c(OC)cc1CN(C)C`: the “Growth Rate” value with HEK-293T (setting [1]) was 1; in the data set on HEK-293T (setting [8]), 1; in the data set with HEK-293T (setting [4]), 1; in the data set on HEK-293T (setting [5]), 0; with HEK-293T (setting [6]) it was 0; in the data set on HEK-293T (setting [2]), 1. In addition, the “Growth Rate” value with Fibroblast (setting [1]) turned out to be 0; with Fibroblast (setting [7]) it was 0; in the data set on Fibroblast (setting [8]), 1; with Fibroblast (setting [4]) it was 0; in the data set with Fibroblast (setting [5]) it was 0; in the data set with Fibroblast (setting [6]) it was 0. Moreover, the “Growth Rate” value worked out at 0 in the data set with U2OS (setting [1]); 0 in the data set on U2OS (setting [7]); 1 in the data set on U2OS (setting [8]); 1 in the data set with U2OS (setting [4]); 0 with U2OS (setting [5]); 1 in the data set with U2OS (setting [10]). In the data set with U2OS (setting [6]), the “Growth Rate” value amounted to 1.

Take `Nc1cc(F)ccc1NC(=O)/C=C/c1cnn(C/C=C/c2ccccc2)c1`: the “Growth Rate” value with HEK-293T (setting [1]) was determined as 0; in the data set on HEK-293T (setting [8]) it was 0; in the data set on HEK-293T (setting [9]) it was 1; in the data set with HEK-293T (setting [10]), 1; with HEK-293T (setting [6]), 1; in the data set with HEK-293T (setting [2]) it was 0. For the same compound, the “Growth Rate” value with Fibroblast (setting [1]) turned out to be 0; with Fibroblast (setting [9]), 0; with Fibroblast (setting [5]) it was 1; in the data set with Fibroblast (setting [10]), 0; in the data set with Fibroblast (setting [6]), 1; in the data set on Fibroblast (setting [2]), 0. Besides, the “Growth Rate” value in the data set on U2OS (setting [3]) is recorded as 1; in the data set on U2OS (setting [7]) it was 0; in the data set with U2OS (setting [4]), 1; with U2OS (setting [5]) it was 0; with U2OS (setting [6]), 0.

With `Cn1cc(CCn2cnc(-c3cnn(C)c3)c2-c2ccc(C#N)cc2)cn1`, the “Growth Rate” value came to 1 in the data set on HEK-293T (setting [1]); 1 with HEK-293T (setting [8]); 1 with HEK-293T (setting [9]); 1 with HEK-293T (setting [5]); 1 in the data set on HEK-293T (setting [6]); 0 in the data set on Fibroblast (setting [3]). Also, the “Growth Rate” value in the data set on Fibroblast (setting [7]) worked out at 0; in the data set with Fibroblast (setting [8]), 1; in the data set with Fibroblast (setting [4]), 1; with Fibroblast (setting [5]), 1; in the data set on Fibroblast (setting [10]) it was 0; in the data set with Fibroblast (setting [6]), 1. For the same compound, the “Growth Rate” value in the data set on Fibroblast (setting [2]) is on record as 0; in the data set on U2OS (setting [1]), 1; in the data set with U2OS (setting [3]), 0; with U2OS (setting [7]), 1; in the data set on U2OS (setting [4]), 1; in the data set on U2OS (setting [5]), 1. Moreover, the “Growth Rate” value in the data set with U2OS (setting [10]) was determined as 0; with U2OS (setting [6]) it was 1.

Turning to `Cc1nnc2c3ccccc3c(N[C@@H](C)[C@H](c3ccccc3)N(C)C)nn12`, the “Growth Rate” value in the data set with HEK-293T (setting [1]) is reported as 0; in the data set on HEK-293T (setting [3]) it was 1; in the data set on HEK-293T (setting [7]) it was 0; in the data set with HEK-293T (setting [4]), 0; in the data set with HEK-293T (setting [5]), 0; in the data set on HEK-293T (setting [6]) it was 0. Also, the “Growth Rate” value in the data set on Fibroblast (setting [1]) turned out to be 0; in the data set with Fibroblast (setting [7]) it was 1; in the data set with Fibroblast (setting [8]), 0; in the data set with Fibroblast (setting [4]), 1; in the data set with Fibroblast (setting [5]) it was 1; with Fibroblast (setting [10]), 0. Also, the “Growth Rate” value in the data set on Fibroblast (setting [6]) was determined as 1; in the data set with Fibroblast (setting [2]) it was 0; with U2OS (setting [1]) it was 0; in the data set with U2OS (setting [7]), 0; in the data set on U2OS (setting [8]), 1; in the data set on U2OS (setting [4]) it was 1. For the same compound, the “Growth Rate” value in the data set on U2OS (setting [5]) and in the data set on U2OS (setting [6]) was 1 throughout.

Consider `Cc1c(C(=O)O)cc(-c2ccc(C3CCNCC3)cc2)c2ccc(-c3ccc(C(F)(F)F)cc3)cc12.Cl`, for which the “Growth Rate” value with HEK-293T (setting [3]), in the data set on HEK-293T (setting [7]), with HEK-293T (setting [4]), with HEK-293T (setting [5]), in the data set with HEK-293T (setting [6]) and in the data set on Fibroblast (setting [1]) was 0 throughout. Also, the “Growth Rate” value in the data set with Fibroblast (setting [3]) is listed as 1; with Fibroblast (setting [7]), 0; in the data set with Fibroblast (setting [8]), 1; with Fibroblast (setting [4]), 0; in the data set with Fibroblast (setting [5]), 0; in the data set with Fibroblast (setting [6]), 0. Moreover, the “Growth Rate” value in the data set on U2OS (setting [1]) came to 0; in the data set with U2OS (setting [4]), 1; in the data set on U2OS (setting [5]), 0; in the data set with U2OS (setting [10]), 1; with U2OS (setting [6]) it was 0; in the data set on U2OS (setting [2]) it was 1.

Turning to `C=CC(=O)Nc1ccc2[nH]c(=O)n(C3CCN(C(=O)c4ccc(-c5nc6cc[nH]c(=O)c6cc5-c5ccccc5)cc4)CC3)c2c1`, the “Growth Rate” value was 0 with HEK-293T (setting [1]); 1 with HEK-293T (setting [2]); 0 with Fibroblast (setting [1]); 1 in the data set with Fibroblast (setting [4]); 1 in the data set on Fibroblast (setting [5]); 1 in the data set with Fibroblast (setting [6]). The “Growth Rate” value in the data set on U2OS (setting [3]) is reported as 0; with U2OS (setting [7]), 1; in the data set on U2OS (setting [4]), 1; in the data set with U2OS (setting [5]), 1; in the data set on U2OS (setting [6]), 1.

With `O=C(Nc1cccnn1)N1CC(C/C=C/c2cncc(Oc3ccc(C(F)(F)F)cn3)n2)C1`, the “Growth Rate” value in the data set with HEK-293T (setting [1]) was found to be 0; with HEK-293T (setting [3]), 1; with HEK-293T (setting [7]), 0; in the data set with HEK-293T (setting [9]), 1; in the data set on HEK-293T (setting [6]), 1; with Fibroblast (setting [1]) it was 0. Also, the “Growth Rate” value with Fibroblast (setting [9]) was 1; in the data set with Fibroblast (setting [10]), 1; in the data set with Fibroblast (setting [6]) it was 1; with U2OS (setting [1]), 0; in the data set with U2OS (setting [3]) it was 1; with U2OS (setting [7]), 0. Also, the “Growth Rate” value with U2OS (setting [4]) stood at 1; with U2OS (setting [5]) it was 1; with U2OS (setting [10]) it was 0; in the data set on U2OS (setting [6]), 1; in the data set with U2OS (setting [2]) it was 0.

As for `Cl.O=C([C@@H](Cc1cccc(C(F)(F)F)c1)NS(=O)(=O)c1cc(F)c2c(c1)CCNC2)N1CCCC1`, the “Growth Rate” value is given as 0 with HEK-293T (setting [1]); 1 with HEK-293T (setting [3]); 1 in the data set on HEK-293T (setting [8]); 1 in the data set with HEK-293T (setting [9]); 1 in the data set with HEK-293T (setting [2]); 1 in the data set with Fibroblast (setting [3]). Also, the “Growth Rate” value is 1 in the data set with Fibroblast (setting [4]); 1 in the data set with Fibroblast (setting [10]); 1 in the data set on Fibroblast (setting [6]); 0 in the data set with U2OS (setting [1]); 0 with U2OS (setting [7]); 1 with U2OS (setting [8]). Also, the “Growth Rate” value in the data set with U2OS (setting [4]) stood at 1; with U2OS (setting [5]), 0; in the data set with U2OS (setting [10]), 1; in the data set on U2OS (setting [6]), 1.

Consider `Cc1cnc(Nc2ccc(F)cc2Cl)nc1-c1c[nH]c(C(=O)N[C@H](CO)c2cccc(Cl)c2)c1`, for which the “Growth Rate” value with HEK-293T (setting [1]), in the data set with HEK-293T (setting [7]), in the data set with HEK-293T (setting [4]), in the data set on HEK-293T (setting [5]), in the data set with HEK-293T (setting [6]) and in the data set on Fibroblast (setting [3]) was 0 each time. In addition, the “Growth Rate” value with Fibroblast (setting [7]) is given as 0; in the data set on Fibroblast (setting [4]), 1; with Fibroblast (setting [5]), 0; in the data set with Fibroblast (setting [10]), 1; in the data set on Fibroblast (setting [6]), 0; in the data set on Fibroblast (setting [2]) it was 1. For the same compound, the “Growth Rate” value with U2OS (setting [1]) is given as 0; with U2OS (setting [3]), 1; in the data set on U2OS (setting [7]), 0; in the data set on U2OS (setting [4]), 0; in the data set on U2OS (setting [5]), 0; with U2OS (setting [6]) it was 0.
